Source: patent US11629171B2, “Beta-hairpin peptidomimetics” (POLYPHOR AG, priority 2017, dated 2023)
In brackets after ≈: the same amount, converted by molar mass. Where a SMILES comes first, the peptide text is derived from it. Bridges are numbered along the chain shown (N, C = ends). Roman numbers before positions name the chains, in order. [ ]: non-standard residue; d: D form. The star is where a group is joined. Thr(ol) = C[C@@H](O)[C@H](N)CO; Tle = CC(C)(C)[C@H](N)C(=O)O; Hiv = CC(C)[C@H](O)C(=O)O; dDab = NCC[C@@H](N)C(=O)O; hSer = N[C@@H](CCO)C(=O)O; NHCH(CH2OH)2 = OCC(CO)N*; Orn = NCCC[C@H](N)C(=O)O; Dab = NCC[C@H](N)C(=O)O; Dap = NC[C@H](N)C(=O)O

Key:
Assay type in all cases: cell-based
[1] = test system: human red blood cells (hRBC); assay: Hemolysis; conditions: red cells of human, 1 h, 200
Protocol: The peptides were tested for their hemolytic activity against human red blood cells (hRBC). Fresh hRBC were washed four times with phosphate buffered saline (PBS) and centrifuged for 10 min at 3000×g. Compounds (200 μg/mL) were incubated with 20% hRBC (v/v) for 1 h at 37° C. and shaking at 300 rpm. A value of 0% and 100% cell lysis, respectively, was determined by incubation of hRBC in the presence of PBS containing 10% water and 2% Triton X-100 in H2O, respectively. The samples were centrifuged, the supernatants were ˜7.5-fold diluted in PBS buffer and the optical densities (OD) were measured at 540 nm and blank corrected. The 100% lysis value (OD540Triton X-100) gave an OD540 of approximately 0.5-1.0.
Percent hemolysis was calculated as follows: (OD540peptide/OD540Triton X-100)×100%.

[2] = test system: Acinetobacter baumannii 872842; conditions: 872842
Protocol: (§1) The in vitro antimicrobial activities of the peptides were determined in 96-well plates (Greiner, polystyrene) by the standard CLSI broth microdilution method (Clinical and Laboratory Standards Institute 2014. Performance standards for antimicrobial susceptibility testing, 24th informational supplement. Approved standard CLSI M100-S24; Clinical and Laboratory Standards Institute, Wayne, Pa.). The following microorganisms were used to determine antibiotic activity of the peptides: Escherichia coli ATCC 25922, Klebsiella pneumoniae SSI #3010^a), Acinetobacter baumannii DSM 30008, Pseudomonas aeruginosa ATCC 27853 and the clinical isolates Escherichia coli 926415^b), Klebsiella pneumoniae 968733^b), Acinetobacter baumannii 872842^b), Enterobacter cloacae 848840^b) and Escherichia coli MCR-1 Af45^c). Before preparation of inocula, Escherichia coli MCR-1 Af45 was subcultured on Mueller-Hinton II (MH-cation adjusted) agar containing 2 μg/mL colistin. ^a) Obtained from Statens Serum Institut (SSI), Copenhagen, Denmark^b) Obtained from International Health Management Associates, Inc. (IHMA Europe Sàrl), Epalinges, Switzerland^c) Obtained from Prof. Patrice Nordmann, University of Fribourg, Fribourg, Switzerland
(§2) Inocula of the microorganisms were diluted into Mueller-Hinton II (MH-cation adjusted) broth and compared with a 0.5 McFarland standard to give appr. 10^6 colony forming units (CFU)/mL. Aliquots (90 μL) of inoculum were added to 10 μL of MH-II broth+P-80 (Polysorbate 80, 0.002% final concentration, v/v) containing the peptide in serial two-fold dilutions. Antimicrobial activities of the peptides were expressed as the minimal inhibitory concentration (MIC) in μg/mL at which no visible growth was observed after 18-20 hours of incubation at 35° C.

Escherichia coli 926415 = conditions: 926415
Protocol: as §1, §2

[3] = test system: Escherichia coli ATCC 25922; conditions: ATCC 25922
Protocol: as §1, §2

[4] = test system: Klebsiella pneumoniae 968733; conditions: 968733
Protocol: as §1, §2

[5] = test system: Klebsiella pneumoniae SSI #3010; conditions: SSI #3010
Protocol: as §1, §2

[6] = test system: Acinetobacter baumannii DSM 30008; conditions: DSM 30008
Protocol: as §1, §2

[7] = test system: Pseudomonas aeruginosa ATCC 27853; conditions: ATCC 27853
Protocol: as §1, §2

MIC [2] [µg/mL]	MIC (Escherichia coli 926415) [µg/mL]	MIC [3] [µg/mL]	MIC [4] [µg/mL]	MIC [5] [µg/mL]	MIC [6] [µg/mL]	MIC [7] [µg/mL]	Compound	Hemolysis at 200 μg/mL [1] [%]
2 (≈ 0.844 µM)	0.5 (≈ 0.211 µM)	0.125 (≈ 0.0527 µM)	2 (≈ 0.844 µM)	0.5 (≈ 0.211 µM)	0.25 (≈ 0.105 µM)	0.5 (≈ 0.211 µM)	CC(C)C[C@@H]1NC(=O)[C@@H](CC(C)C)NC(=O)[C@H](CCN)NC(=O)[C@@H](NC(=O)[C@H](CN)NC(=O)[C@@H](NC(=O)[C@H](CCN)NC(=O)CC[C@H]2NC(=O)CNC(=O)[C@H](CCCN)NC(=O)[C@H](CCN)NC(=O)[C@H](Cc3ccc(O)cc3)NC(=O)[C@@H](NC(=O)[C@@H](O)C(C)C)CSSC[C@@H](C(=O)N[C@H](C(N)=O)[C@@H](C)O)NC(=O)[C@H](C(C)(C)C)NC(=O)[C@H](CO)NC(=O)[C@H](Cc3c[nH]c4ccccc34)NC2=O)[C@@H](C)O)CCNC(=O)[C@H]([C@@H](C)O)NC(=O)[C@H](CCN)NC(=O)[C@H](CCN)NC1=O [Ex. 170] (I: H-[Hiv]CY[Dab][Orn]G[dE]WS[Tle]CT-NH2 / II: [Dab]T[Dap][Dab][Dab][dL]L[Dab][Dab]T; disulfide I:2-I:11; amide I:7-II:N; lactam II:4-II:C)	<1
1 (≈ 0.414 µM)	0.5 (≈ 0.207 µM)	0.25 (≈ 0.104 µM)	4 (≈ 1.66 µM)	0.5 (≈ 0.207 µM)	0.25 (≈ 0.104 µM)	0.25 (≈ 0.104 µM)	CC(C)C[C@@H]1NC(=O)[C@@H](CC(C)C)NC(=O)[C@H](CCN)NC(=O)[C@@H](NC(=O)[C@H](CN)NC(=O)[C@@H](NC(=O)[C@H](CCN)NC(=O)CC[C@H]2NC(=O)[C@@H](CCN)NC(=O)[C@H](CCCN)NC(=O)[C@H](CCN)NC(=O)[C@H](Cc3ccc(O)cc3)NC(=O)[C@@H](NC(=O)[C@@H](O)C(C)C)CSSC[C@@H](C(=O)N[C@H](C(N)=O)[C@@H](C)O)NC(=O)[C@H](C(C)(C)C)NC(=O)[C@H](CO)NC(=O)[C@H](Cc3c[nH]c4ccccc34)NC2=O)[C@@H](C)O)CCNC(=O)[C@H]([C@@H](C)O)NC(=O)[C@H](CCN)NC(=O)[C@H](CCN)NC1=O [Ex. 169] (I: H-[Hiv]CY[Dab][Orn][dDab][dE]WS[Tle]CT-NH2 / II: [Dab]T[Dap][Dab][Dab][dL]L[Dab][Dab]T; disulfide I:2-I:11; amide I:7-II:N; lactam II:4-II:C)	<1
2 (≈ 0.838 µM)	1 (≈ 0.419 µM)	0.125 (≈ 0.0524 µM)	4 (≈ 1.68 µM)	0.25 (≈ 0.105 µM)	0.25 (≈ 0.105 µM)	0.5 (≈ 0.21 µM)	CC(C)C[C@@H]1NC(=O)[C@@H](CC(C)C)NC(=O)[C@H](CCN)NC(=O)[C@@H](NC(=O)[C@H](CN)NC(=O)[C@@H](NC(=O)[C@H](CCN)NC(=O)CC[C@@H]2NC(=O)[C@H](CCCN)NC(=O)[C@@H](NC(=O)[C@H](Cc3ccc(O)cc3)NC(=O)[C@@H](NC(=O)[C@@H](O)C(C)C)[C@@H](C)O)CSSC[C@@H](C(=O)N[C@H](C(=O)N[C@@H](C)C(=O)N[C@H](CO)[C@@H](C)O)C(C)(C)C)NC(=O)[C@H](Cc3c[nH]c4ccccc34)NC(=O)[C@H]([C@@H](C)O)NC2=O)[C@@H](C)O)CCNC(=O)[C@H]([C@@H](C)O)NC(=O)[C@H](CCN)NC(=O)[C@H](CCN)NC1=O [Ex. 209] (I: H-[Hiv]TYC[Orn]ETWC[Tle]A[Thr(ol)] / II: [Dab]T[Dap][Dab][Dab][dL]L[Dab][Dab]T; disulfide I:4-I:9; amide I:6-II:N; lactam II:4-II:C)	<1
2 (≈ 0.893 µM)	0.25 (≈ 0.112 µM)	0.5 (≈ 0.223 µM)	1 (≈ 0.447 µM)	0.5 (≈ 0.223 µM)	0.5 (≈ 0.223 µM)	1 (≈ 0.447 µM)	CC(C)C[C@@H]1NC(=O)[C@H](CCN)NC(=O)[C@H](CCN)NC(=O)[C@H](CC(C)C)NC(=O)[C@@H](CC(C)C)NC(=O)[C@H](CCN)NC(=O)[C@@H](NC(=O)[C@@H](CCN)NC(=O)CC[C@@H]2NC(=O)[C@H](CCCN)NC(=O)[C@H](CCN)NC(=O)[C@H](Cc3ccc(O)cc3)NC(=O)[C@@H](NC(=O)[C@@H](O)C(C)C)CSSC[C@@H](C(=O)N[C@H](C(N)=O)[C@@H](C)O)NC(=O)[C@H](C(C)(C)C)NC(=O)[C@H](CO)NC(=O)[C@H](Cc3c[nH]c4ccccc34)NC(=O)[C@H]([C@@H](C)O)NC2=O)CCNC1=O [Ex. 164] (I: H-[Hiv]CY[Dab][Orn]ETWS[Tle]CT-NH2 / II: [dDab][Dab][Dab][dL]L[Dab][Dab]L; disulfide I:2-I:11; amide I:6-II:N; lactam II:2-II:C)	<1

More lines, now with the values behind:

Compound	MIC [2] [µg/mL]	MIC (Escherichia coli 926415) [µg/mL]	MIC [3] [µg/mL]	MIC [4] [µg/mL]	MIC [5] [µg/mL]	MIC [6] [µg/mL]	MIC [7] [µg/mL]	Hemolysis at 200 μg/mL [1] [%]
CC(C)C[C@@H]1NC(=O)[C@@H](CC(C)C)NC(=O)[C@H](CCN)NC(=O)[C@@H](NC(=O)[C@H](CCN)NC(=O)[C@@H](NC(=O)[C@H](CCN)NC(=O)CC[C@@H]2NC(=O)[C@H](CCN)NC(=O)[C@H](C(C)C)NC(=O)[C@@H](NC(=O)[C@@H](O)C(C)C)CSSC[C@@H](C(=O)NC(CO)CO)NC(=O)[C@H](Cc3ccc(O)cc3)NC(=O)[C@H](CO)NC(=O)[C@H](Cc3c[nH]c4ccccc34)NC(=O)[C@H](CCO)NC(=O)[C@@H](CCN)NC2=O)[C@@H](C)O)CCNC(=O)[C@H]([C@@H](C)O)NC(=O)[C@H](CCN)NC(=O)[C@H](CCN)NC1=O [Ex. 97] (I: H-[Hiv]CV[Dab]E[dDab][hSer]WSYC-{NHCH(CH2OH)2} / II: [Dab]T[Dab][Dab][Dab][dL]L[Dab][Dab]T; disulfide I:2-I:11; amide I:5-II:N; lactam II:4-II:C)	2 (≈ 0.843 µM)	2 (≈ 0.843 µM)	0.25 (≈ 0.105 µM)	8 (≈ 3.37 µM)	0.125 (≈ 0.0527 µM)	0.25 (≈ 0.105 µM)	0.25 (≈ 0.105 µM)	<1
CC(=O)N[C@H](C(=O)N[C@H]1CSSC[C@@H](C(=O)N[C@H](C(N)=O)C(C)C)NC(=O)[C@H](Cc2ccc(O)cc2)NC(=O)[C@H](CO)NC(=O)[C@H](Cc2c[nH]c3ccccc23)NC(=O)[C@H](CCO)NC(=O)[C@@H](CCN)NC(=O)[C@H](CCC(=O)N[C@@H](CCN)C(=O)N[C@H](C(=O)N[C@@H](CCN)C(=O)N[C@H]2CCNC(=O)[C@H]([C@@H](C)O)NC(=O)[C@H](CCN)NC(=O)[C@H](CCN)NC(=O)[C@H](CC(C)C)NC(=O)[C@@H](CC(C)C)NC(=O)[C@H](CCN)NC2=O)[C@@H](C)O)NC(=O)[C@H](CCN)NC(=O)[C@H](CO)NC1=O)C(C)C [Ex. 68] (I: Ac-VCS[Dab]E[dDab][hSer]WSYCV-NH2 / II: [Dab]T[Dab][Dab][Dab][dL]L[Dab][Dab]T; disulfide I:2-I:11; amide I:5-II:N; lactam II:4-II:C)	8 (≈ 3.3 µM)	2 (≈ 0.824 µM)	0.25 (≈ 0.103 µM)	1 (≈ 0.412 µM)	0.125 (≈ 0.0515 µM)	0.25 (≈ 0.103 µM)	0.5 (≈ 0.206 µM)	<1
CC(C)C[C@@H]1NC(=O)[C@@H](CC(C)C)NC(=O)[C@H](CCN)NC(=O)[C@@H](NC(=O)[C@H](CN)NC(=O)[C@@H](NC(=O)[C@H](CCN)NC(=O)CC[C@@H]2NC(=O)[C@H](CCCN)NC(=O)[C@H](CCN)NC(=O)[C@H](Cc3ccc(O)cc3)NC(=O)[C@@H](NC(=O)[C@@H](O)C(C)C)CSSC[C@@H](C(=O)NC(CO)CO)NC(=O)[C@H](C(C)(C)C)NC(=O)[C@H](CO)NC(=O)[C@H](Cc3c[nH]c4ccccc34)NC(=O)[C@H]([C@@H](C)O)NC2=O)[C@@H](C)O)CCNC(=O)[C@H]([C@@H](C)O)NC(=O)[C@H](CCN)NC(=O)[C@H](CCN)NC1=O [Ex. 162] (I: H-[Hiv]CY[Dab][Orn]ETWS[Tle]C-{NHCH(CH2OH)2} / II: [Dab]T[Dap][Dab][Dab][dL]L[Dab][Dab]T; disulfide I:2-I:11; amide I:6-II:N; lactam II:4-II:C)	0.5 (≈ 0.209 µM)	1 (≈ 0.419 µM)	0.125 (≈ 0.0524 µM)	8 (≈ 3.35 µM)	0.5 (≈ 0.209 µM)	0.25 (≈ 0.105 µM)	0.25 (≈ 0.105 µM)	<1
